This is an account of results in patent publication US20220313677A1, “METHODS FOR TREATING LIVER DISORDERS USING FXR AGONISTS” (Novartis AG, priority 2016, published 2022).

The conditions of data set [1]: clinical studies; cited from earlier work.
Data set [2] in a line: Multiple oral dose plasma pharmacokinetics in healthy subjects.
For data set [3], the system named is rat ANIT-induced cholestasis model. Put plainly: Chronic treatment rat ANIT model: serum markers of cholestasis and liver damage. The conditions noted are these: 14 days oral dosing; AST, ALT, bilirubin, bile acids in serum. Type of data set: in vivo. The method, then: Rats were treated with alpha-naphthyl-isothiocyanate (ANIT) (0.1% w/w) in food for 3 days prior to treatment with the compound at the indicated doses or with vehicle control (“Veh”). A non-cholestatic control group was fed standard chow diet without ANIT, and serve as the non-cholestatic control animals (“Control”). After 14 days of oral dosing, the indicated analyte was measured in serum. LLQ, lower limit of quantitation. Mean±SEM; n=5.
(§1) Male Wistar rats were treated with ANIT (0.1% ANIT in chow diet) for 2 weeks. […] The serum samples were collected on day 14 for analysis of biomarkers of hepatobiliary injury (including ALT, AST, bilirubin and bile acids). The PK samples (pre-dose, 0.5, 1, 3, 7, 10 and 24 h, n=3/dose group) were taken on day 13 (at steady-state).

The subject of another data set is FGF15. Briefly: Serum FGF15 (MSD assay) in chronic treatment rat ANIT model. The format is in vivo. The method, then:
Serum FGF15 levels were quantified using an FGF15 Meso Scale Discovery (MSD) assay. Mouse FGF15 antibody from R&D Systems (AF6755) was used both as capture and detection antibody in the assay. MSD SULFO-TAG NHS-Ester was used to label the FGF15 antibody. MSD standard 96-well plates were coated with the FGF15 capture antibody and the plates were blocked with MSD Blocker A (R93AA-2). After washing the plate with PBS+0.05% Tween 20, MSD diluent 4 was dispensed into each well and incubated for 30 min. 25 μl of calibrator dilutions or samples (serum or EDTA plasma) were dispensed into each well and incubated with shaking at RT. After washing, detection antibody was added and incubated with shaking for 1 h at RT. After washing and the addition of MSD Read buffer (R92TC-2), the plate was read on an MSD SECTOR Imager 6000. Plots of the standard curve and unknown samples were calculated using MSD data analysis software.
Activation of FXR in the ileum induces the expression of fibroblast growth factor 15 (FGF15 in rodent; FGF19 in human), a hormone that is secreted in the portal blood and signals to the liver to repress Cyp7a1 expression synergistically with SHP. The direct FXR-dependent induction of FGF15/19 along with FGF15/19's anti-cholestatic properties makes it a convenient serum biomarker for detecting target engagement of FXR agonists.

The nature of data set [4]: Safety and tolerability in clinical study. Type of data set: in vivo, human. From the text: Elevated ALT resolved to within normal levels within 14 days and without intervention.
The nature of data set [5]: Single oral dose plasma pharmacokinetics in healthy subjects. Type of data set: in vivo, human. Conditions: fasted, mean.
For data set [6], the system named is rat ANIT-induced cholestasis model. Briefly: PK/PD modeling of effective exposure in rat ANIT model. Type of data set: in vivo. Conditions: for IC80 (total bilirubin): 2-week rat ANIT chronic treatment model, serum total bilirubin, Inhibitory effect Imax model. The method, then: as §1
The mean biomarker data were compared to the PK data (average concentration at each dose) for the modeling. The IC80 was determined using the Inhibitory effect Imax model (effect C=0 at Imax, C=infinity at E0) built in Phoenix WinNonlin 6.3 software. […] Therefore, we chose to use a mean of the IC80 for the four biomarkers (total bilirubin, total bile acids, ALT and AST) as the IC80 for efficacy in this model. From these studies, the IC80 of LJN452 was 0.127 ng/ml and the corresponding AUCO-24h was 3.05 ng*h/ml (Table 1), and the corresponding efficacious dose is approximately 0.01 mg/kg (based on Table 1 and Table 2).
The PK samples (pre-dose, 0.5, 1, 3, 7, 10 and 24 h, n=3/dose group) were taken on day 13 (at steady-state). AUCO-24h was determined using Phoenix WinNonlin 6.3 software and the average concentrations were calculated from mean of AUCO-24h at each dose (divided the AUCO-24h by 24 h). The individual biomarker data were compared to the PK data (average concentration at each dose) for the modeling. Since the lowest dose (0.01 mg/kg) already approached maximal efficacy, the IC80 was chosen as the measurement of the efficacious exposure (Table 1). The IC80 was determined using the Inhibitory effect Imax model (effect C=0 at Imax, C=infinity at E0) built in Phoenix WinNonlin 6.3 software.

In the next data set the test system is FGR5. Put plainly: FGR5 effects.
The nature of data set [7]: Estimation of human efficacious dose from rat efficacious exposure and human PK. Conditions: human, plasma, oral; at dose of ~6 μg; read-out: Cmax at estimated human efficacious dose. The format is in vivo. The method, then:
The human efficacy dose was calculated based on the efficacious exposure in the rat ANIT-induced disease model. Since the in vitro potency and protein binding between human and rat were similar, the EC80 exposure in human was assumed to be the same as that in rat (3.05 ng*h/mL).

Where [8] appears, read: exposures for doses 10-100 μg normalized to 10 μg.
Setting [9] is: maximal drug effect, rat ANIT model.

Converted amounts (≈) assume the structure as drawn. “Also recorded” adds a separate entry of the source.

On to `CC[C@H]1[C@@H](O)[C@@H]2[C@H](CC[C@]3(C)[C@@H]([C@H](C)CCC(=O)O)CC[C@@H]23)[C@@]2(C)CC[C@@H](O)C[C@@H]12` [OCA, 6α-ethyl-chenodeoxycholic acid], for which the pruritus result in data set [1] is recorded as “increased pruritus”.
One may read the Cmax as the maximum level reached in the sampled fluid or tissue. `O=C(O)c1cc(F)c2nc(N3C4CC[C@H]3CC(OCc3c(-c5ccccc5OC(F)(F)F)noc3C3CC3)C4)sc2c1` (stereo partly drawn) [Compound A, 2-[(1R,3r,5S)-3-({5-cyclopropyl-3-[2-(trifluoromethoxy)phenyl]-1,2-oxazol-4-yl}methoxy)-8-azabicyclo[3.2.1]octan-8-yl]-4-fluoro-1,3-benzothiazole-6-carboxylic acid]: in [2] (setting [8]), the “average AUCtau at day 13 for a dose level of 10 μg” value worked out at 4.84 ng·h/mL and the “average Cmax at day 13 for a dose level of 10 μg” value was 0.32 ng/mL. The “dose proportionality of exposure (Cmax and AUC)” value in data set [2] (once daily dosing, dose range 10 μg to 100 μg) is reported as “approximately dose-proportional increase; also recorded: approximately dose proportional increase”. Moreover, the “time by which steady-state was reached” value in [2] (once daily oral dosing, trough levels) is ≤ 4 days. Also, the “dose from which hepatobiliary injury indicators improved” value in data set [3] is given as ≥ 0.01 mg/kg. In the data set on FGF15, the “serum FGF15” value is “stimulated serum FGF15 expression; also recorded: Significant dose-dependent induction”. Moreover, the “ALP or bilirubin elevation” value in data set [4] (100 μg repeated daily) is “no elevation”. For the same compound, the “findings in physical exam, vital signs or ECGs” value in [4] (clinical study) was “No significant findings”. Also, the “tolerability in repeated daily administration” value in data set [4] (doses up to and including 60 μg) is reported as “well tolerated”. Moreover, in [5] (single dose 10 μg), the AUCinf was found to be 3.39 ng·h/mL, the AUClast turned out to be 2.79 ng·h/mL, the maximum concentration (Cmax) amounted to 0.186 ng/mL and the T½ came to 14.9 h. In data set [5] (single dose 30 μg), the AUCinf was 13.4 ng·h/mL, the AUClast was 12.7 ng·h/mL, the Cmax was 0.627 ng/mL and the T½ was 13.7 h. Moreover, in data set [5] (single dose 100 μg), the AUCinf came to 37.9 ng·h/mL, the AUClast was determined as 34.8 ng·h/mL, the maximum concentration (Cmax) is 1.73 ng/mL and the T½ came to 13.5 h. In data set [5] (single dose 300 μg), this compound gave an AUCinf of 123 ng·h/mL, an AUClast of 119 ng·h/mL, a maximum concentration (Cmax) of 6.41 ng/mL and a T½ of 15.3 h. Further, in [5] (single dose 1000 μg), the AUCinf worked out at 482 ng·h/mL, the AUClast was 416 ng·h/mL, the Cmax came to 22.1 ng/mL and the T½ was found to be 21.9 h. In data set [5] (single dose 3000 μg), this compound came in with an AUCinf of 933 ng·h/mL, an AUClast of 888 ng·h/mL, a Cmax of 54.2 ng/mL and a T½ of 16.5 h. In addition, the “IC80 (total bilirubin)” value in [6] amounted to 0.223 ng/mL (≈ 0.369 nM). For the same compound, the “IC80 (total bilirubin)” value in data set [6] (listed as LJN452) turned out to be 8.223 ng/mL (≈ 13.6 nM). In [6] (setting [9]), the “Imax (ALT)” value worked out at 84.2 U/L, the “Imax (AST)” value is listed as 140.3 U/L, the “Imax (total bile acids)” value amounted to 125.5 µmol/L and the “Imax (total bilirubin)” value came to 2.0 mg/dL. Further, the FGR5 effects entry in the data set on FGR5 is “no FGR5 effects”. Also, the Cmax in data set [7] is ~0.2 ng/mL. In the data set on FGF19 (30 μg/day), the FGF19 elevations entry is “consistent with pharmacological activity in NASH”. In addition, the FGF19 dose dependence result in the data set on FGF19 (single dose studies 10 μg to 1 mg) is given as “Dose-dependent increases”.
